Source: paper PMC5527310, “Stringent Expression Control of Pathogenic R-body Production in Legume Symbiont Azorhizobium caulinodans” (mBio, 2017)

Target: T1, His6-PraR (Azorhizobium caulinodans, UniProt A8IG10)
T1 construct: full praR ORF, N-terminal His6 tag (pCold I, plasmid pTAC99), expressed in E. coli BLR(DE3), Ni-bead purified
Assay: EMSA, FITC-labelled reb promoter dsDNA probe
Details: inhibits PraR binding to reb promoter DNA; 2OG 0.01 to 10 mM; pH 8.0, 5 mM MgCl2, 26 °C; direct 2OG binding to PraR not measured

T1 sequence (A8IG10 entry or part of it): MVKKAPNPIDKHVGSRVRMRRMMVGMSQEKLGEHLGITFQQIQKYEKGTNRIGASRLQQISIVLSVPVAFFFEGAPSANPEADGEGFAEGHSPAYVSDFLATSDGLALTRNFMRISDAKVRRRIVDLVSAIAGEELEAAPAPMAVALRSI

## O=C(O)CCC(=O)C(=O)O [2-oxoglutarate]
  EMSA, FITC-labelled reb promoter dsDNA probe: binding of PraR to the reb promoter dsDNA probe decreased with increasing 2OG concentration
